Assay results from PubChem BioAssay (NCI).
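A five-concentration, 48-hour dose response in 96-well plates underlies each endpoint, interpolated linearly between surrounding concentrations. Here, GI50 denotes the concentration required for 50% inhibition of growth. TGI: concentration producing complete growth inhibition.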

Columns and labels:
Assay in all cases: DTP human tumour cell line panel, 48 h
OVCAR-3 ovarian = test system: OVCAR-3 ovarian
SW-620 colon = test system: SW-620 colon
IGROV1 ovarian = test system: IGROV1 ovarian
SF-295 CNS = test system: SF-295 CNS
U251 CNS = test system: U251 CNS
NCI-H226 lung = test system: NCI-H226 lung
MDA-MB-435 = test system: MDA-MB-435
M14 melanoma = test system: M14 melanoma
SK-MEL-5 melanoma = test system: SK-MEL-5 melanoma
UACC-257 melanoma = test system: UACC-257 melanoma
SR leukemia = test system: SR leukemia
A549 NSCLC = test system: A549 NSCLC
MDA-MB-468 breast = test system: MDA-MB-468 breast
MCF7 breast = test system: MCF7 breast
K-562 leukemia = test system: K-562 leukemia
HT29 colon = test system: HT29 colon
SN12C renal = test system: SN12C renal
SK-OV-3 ovarian = test system: SK-OV-3 ovarian
SNB-75 CNS = test system: SNB-75 CNS
NCI-H23 lung = test system: NCI-H23 lung
LOX IMVI melanoma = test system: LOX IMVI melanoma
MOLT-4 leukemia = test system: MOLT-4 leukemia
TK-10 renal = test system: TK-10 renal
SF-539 CNS = test system: SF-539 CNS
HCT-15 colon = test system: HCT-15 colon
NCI-H460 lung = test system: NCI-H460 lung
NCI-H522 lung = test system: NCI-H522 lung
SNB-19 CNS = test system: SNB-19 CNS
CAKI-1 renal = test system: CAKI-1 renal
RPMI-8226 leukemia = test system: RPMI-8226 leukemia
SF-268 CNS = test system: SF-268 CNS
KM12 colon = test system: KM12 colon
BT-549 breast = test system: BT-549 breast
786-0 renal = test system: 786-0 renal
OVCAR-8 ovarian = test system: OVCAR-8 ovarian
HL-60(TB) leukemia = test system: HL-60(TB) leukemia
OVCAR-4 ovarian = test system: OVCAR-4 ovarian
HOP-62 NSCLC = test system: HOP-62 NSCLC
HCT-116 colon = test system: HCT-116 colon
COLO 205 colon = test system: COLO 205 colon
RXF 393 renal = test system: RXF 393 renal
A498 renal = test system: A498 renal
CCRF-CEM leukemia = test system: CCRF-CEM leukemia
HCC-2998 colon = test system: HCC-2998 colon
OVCAR-5 ovarian = test system: OVCAR-5 ovarian
SK-MEL-2 melanoma = test system: SK-MEL-2 melanoma
HS 578T breast = test system: HS 578T breast
PC-3 prostate = test system: PC-3 prostate
UACC-62 melanoma = test system: UACC-62 melanoma
UO-31 renal = test system: UO-31 renal

O=C1NC(=NC23CC4CC(CC(C4)C2)C3)N/C1=C\c1ccc2ncsc2c1 gave a GI50 (OVCAR-3 ovarian) of 1.74 µM, a TGI (OVCAR-3 ovarian) of 6.73 µM and a GI50 (SW-620 colon) of 1.81 µM. It also gave a TGI (SW-620 colon) of over 100 µM, a GI50 (IGROV1 ovarian) of 2.58 µM and a TGI (IGROV1 ovarian) of over 100 µM. It also gave a GI50 (SF-295 CNS) of 3.4 µM, a TGI (SF-295 CNS) of over 100 µM and a GI50 (U251 CNS) of 1.79 µM. For the same compound, the TGI (U251 CNS) was over 100 µM, the GI50 (NCI-H226 lung) was 1.43 µM and the TGI (NCI-H226 lung) was over 100 µM. For the same compound, the GI50 (MDA-MB-435) was 3.11 µM, the TGI (MDA-MB-435) was over 100 µM and the GI50 (M14 melanoma) was 2.42 µM. The TGI (M14 melanoma) was over 100 µM, the GI50 (SK-MEL-5 melanoma) was 0.899 µM and the TGI (SK-MEL-5 melanoma) was 5.56 µM. The GI50 (UACC-257 melanoma) was 4.11 µM, the TGI (UACC-257 melanoma) was over 100 µM and the GI50 (SR leukemia) was 0.17 µM. For the same compound, the TGI (SR leukemia) was 1.24 µM, the GI50 (A549 NSCLC) was 1.19 µM and the TGI (A549 NSCLC) was over 100 µM. For the same compound, the GI50 (MDA-MB-468 breast) was 1.24 µM, the TGI (MDA-MB-468 breast) was 3.67 µM and the GI50 (MCF7 breast) was 1.37 µM. For the same compound, the TGI (MCF7 breast) was over 100 µM, the GI50 (K-562 leukemia) was 0.762 µM and the TGI (K-562 leukemia) was over 100 µM. It also gave a GI50 (HT29 colon) of 3.09 µM, a TGI (HT29 colon) of over 100 µM and a GI50 (SN12C renal) of 0.842 µM. For the same compound, the TGI (SN12C renal) was over 100 µM, the GI50 (SK-OV-3 ovarian) was 5.47 µM and the TGI (SK-OV-3 ovarian) was over 100 µM. The GI50 (SNB-75 CNS) was 1.62 µM, the TGI (SNB-75 CNS) was 4.29 µM and the GI50 (NCI-H23 lung) was 1.58 µM. The TGI (NCI-H23 lung) was 7.36 µM, the GI50 (LOX IMVI melanoma) was 0.928 µM and the TGI (LOX IMVI melanoma) was over 100 µM. The GI50 (MOLT-4 leukemia) was 1.65 µM, the TGI (MOLT-4 leukemia) was over 100 µM and the GI50 (TK-10 renal) was 2.87 µM. The TGI (TK-10 renal) was over 100 µM, the GI50 (SF-539 CNS) was 0.432 µM and the TGI (SF-539 CNS) was 3.06 µM. For the same compound, the GI50 (HCT-15 colon) was 0.663 µM, the TGI (HCT-15 colon) was over 100 µM and the GI50 (NCI-H460 lung) was 0.538 µM. For the same compound, the TGI (NCI-H460 lung) was over 100 µM, the GI50 (NCI-H522 lung) was 0.168 µM and the TGI (NCI-H522 lung) was 4.79 µM. For the same compound, the GI50 (SNB-19 CNS) was 3.58 µM, the TGI (SNB-19 CNS) was over 100 µM and the GI50 (CAKI-1 renal) was 1.33 µM. For the same compound, the TGI (CAKI-1 renal) was over 100 µM, the GI50 (RPMI-8226 leukemia) was 1.2 µM and the TGI (RPMI-8226 leukemia) was 5.14 µM. For the same compound, the GI50 (SF-268 CNS) was 2.23 µM, the TGI (SF-268 CNS) was 6.58 µM and the GI50 (KM12 colon) was 1.8 µM. For the same compound, the TGI (KM12 colon) was over 100 µM, the GI50 (BT-549 breast) was 1.63 µM and the TGI (BT-549 breast) was 7 µM. It also gave a GI50 (786-0 renal) of 3.05 µM, a TGI (786-0 renal) of over 100 µM and a GI50 (OVCAR-8 ovarian) of 1.68 µM. For the same compound, the TGI (OVCAR-8 ovarian) was over 100 µM, the GI50 (HL-60(TB) leukemia) was 1.63 µM and the TGI (HL-60(TB) leukemia) was 5.25 µM. For the same compound, the GI50 (OVCAR-4 ovarian) was 3.2 µM, the TGI (OVCAR-4 ovarian) was over 100 µM and the GI50 (HOP-62 NSCLC) was 3.35 µM. For the same compound, the TGI (HOP-62 NSCLC) was over 100 µM, the GI50 (HCT-116 colon) was 0.323 µM and the TGI (HCT-116 colon) was over 100 µM. It also gave a GI50 (COLO 205 colon) of 1.8 µM, a TGI (COLO 205 colon) of 6.77 µM and a GI50 (RXF 393 renal) of 2.01 µM. The TGI (RXF 393 renal) was 4.21 µM, the GI50 (A498 renal) was 2.7 µM and the TGI (A498 renal) was 7.79 µM. For the same compound, the GI50 (CCRF-CEM leukemia) was 1.12 µM, the TGI (CCRF-CEM leukemia) was 5.96 µM and the GI50 (HCC-2998 colon) was 3.32 µM. For the same compound, the TGI (HCC-2998 colon) was over 100 µM, the GI50 (OVCAR-5 ovarian) was 2.45 µM and the TGI (OVCAR-5 ovarian) was over 100 µM. The GI50 (SK-MEL-2 melanoma) was 0.933 µM, the TGI (SK-MEL-2 melanoma) was 3.13 µM and the GI50 (HS 578T breast) was 2.73 µM. It also gave a TGI (HS 578T breast) of 8.13 µM, a GI50 (PC-3 prostate) of 3.29 µM and a TGI (PC-3 prostate) of over 100 µM. It also gave a GI50 (UACC-62 melanoma) of 3.11 µM, a TGI (UACC-62 melanoma) of over 100 µM and a GI50 (UO-31 renal) of 2.96 µM. The TGI (UO-31 renal) was 8.04 µM.
